Earlier results in patent publication US20030152525A1, “Stable oral compositions comprising casein phosphopeptide complexes and fluoride” (The Procter & Gamble Company, priority 2002, published 2003).

Conditions: solutions containing 0.1% w/v peptide, various pH, calcium and phosphate concentrations, constant ionic strength; as discussed in WO 98/40406

## Gln^59-Met-Glu-Ala-Glu-Ser(P)-Ile-Ser(P)-Ser(P)-Ser(P)-Glu-Glu-Ile-Val-Pro-Asn-Ser(P)-Val-Glu-Gln-Lys^79 [αs1 (59-79) [1]]
  calcium maximally bound per molecule of peptide: 24 per molecule
  phosphate maximally bound per molecule of peptide: 16 per molecule
